# Assay results reported in patent publication US12661431B2, “Pharmaceutical compositions for treating osteoarthritis” (INSIGNIA PHARMACEUTICALS, LLC, priority 2023, dated 2026).
# Entries after “also recorded” stand apart in the source; their conditions may differ.
# How the values were obtained:
# [1] = tested on: Osteoarthritic fibroblast-like chondrocytes; test: MMP13 expression by real time RT-PCR in osteoarthritic fibroblast-like chondrocytes; format: cell-based; conditions: 0.1 percent hyaluronic acid and/or 0.1 micromolar dexamethasone
# Experimental: Osteoarthritic fibroblast-like chondrocytes were cultured for 2 to 28 days in the presence of either 0.1 percent hyaluronic acid, 0.1 micromolar dexamethasone, or both 0.1 percent hyaluronic acid and 0.1 micromolar dexamethasone. Media was exchanged every 2-3 days. Chondrocytes cultured for 2 days, 14 days, or 28 days were analyzed by real time RT-PCR to assess matrix metallopeptidase 13 (MMP13) expression.
# [2] = tested on: Human osteoarthritic chondrocytes; test: Immunostaining for SOX9, Col2a1 and ACAN of osteoarthritic chondrocytes cultured 24 days on HA hydrogel; format: cell-based
# Text: ACAN is an articular cartilage-specific proteoglycan that is important to the proper function and the load-bearing capacity of cartilage. Data is presented as the fluorescence of photographic images captured on an epifluorescent microscope for the ACAN signal (FU) normalized to the signal of 4′,6-diamidino-2-phenylindole (DAPI) nuclear stain, designated as FU/DAPI.
# The chondrocytes were layered on top of an HA hydrogel (SYNVISC®, Sanofi-Aventis, United States). Following 24 days, the cells were fixed with paraformaldehyde and immunostained for SOX9, Col2a1, and ACAN.
# [3] = tested on: Human osteoarthritic chondrocytes; test: Microscopic examination of chondrocyte spheroid morphology on HA hydrogel; format: cell-based
# Experimental: The chondrocytes were layered on top of an HA hydrogel (SYNVISC®, Sanofi-Aventis, United States). Following 20 days, hyaluronidase was added to release the cells from the hydrogel, the cells were collected, and total RNA was isolated.
# Control chondrocytes established a monolayer on the bottom surface of their culture wells (FIG. 4A).
# [4] = tested on: THP-1 macrophage-like cells; test: IL-1beta release (ELISA) from PMA-differentiated THP-1 cells activated with LPS then ATP; format: cell-based, human; conditions: 0.2 (0.19) to 6 millimolar; LPS 100 ng/mL 24 hours then 10 millimolar ATP 1 hour
# Experimental: The human monocyte cell line THP-1 was differentiated into macrophage-like cells with PMA for 72 hours. […] Cells were then activated with 100 nanograms per milliliter lipopolysaccharide (LPS) for 24 hours followed by an additional hour with 10 millimolar adenosine triphosphate (ATP). LPS is a toll-like receptor 4 (TLR4) agonist, and ATP activates […] to promote inflammasome activity. The resulting IL-1beta release was quantified by enzyme-linked immunosorbent assay (ELISA).
# [5] = tested on: THP-1 macrophage-like cells; test: Colorimetric MTS cell density/viability assay, resting and activated THP-1 cultures; format: cell-based, human; conditions: 6 millimolar decanoic acid
# Experimental: Then cell density was assessed in both resting and activated cultures using a colorimetric MTS assay with optical density at 490 nanometers (FIGS. 6A & 6B).
# [6] = tested on: THP-1 macrophage-like cells; test: IL-1beta release (ELISA) from PMA-differentiated THP-1 cells stimulated with CL075 with or without ATP; format: cell-based, human; conditions: 1 millimolar decanoic acid
# Experimental: TLR7/8 agonists increase inflammasome activity and IL-1beta release through a different pathway relative to TLR4 agonists. To evaluate this response, THP-1 monocytic cells were differentiated to a macrophage-like state using PMA for 72 hours. […] To further activate the inflammasome, ATP was then added to the wells designated “second hit,” and the cultures were incubated for an additional hour. To indicated wells, hyaluronidase was added for 15 minutes, and all mediums harvested for IL-1beta ELISA quantification. Results are depicted in FIG. 7.
# [7] = tested on: THP-1 macrophage-like cells; test: Tetrazolium colorimetric cell count assay of THP-1 cultures on HA hydrogel; format: cell-based, human; conditions: addition of decanoic acid (1 millimolar) on HA hydrogel
# Experimental: A colorimetric assay confirmed that the inhibition of IL-1beta release was not caused solely by reduced cell counts. Tetrazolium colorimetric dye was added to the cultures at the end of the experiment and cell counts were measured by optical density at 490 nanometers.
# [8] = high-density monolayers, vehicle, 0.1, 0.5 and 1 millimolar decanoic acid
compound,measurement,setting,value
C[C@@H]1C[C@H]2[C@@H]3CCC4=CC(=O)C=C[C@]4(C)[C@@]3(F)[C@@H](O)C[C@]2(C)[C@@]1(O)C(=O)CO [dexamethasone],Change in MMP13 expression at day 2,[1],0
same,Change in MMP13 expression at day 14,[1],−399
same,Change in MMP13 expression at day 28,[1],−4
CCCCCCCCCC(=O)O [decanoic acid],spheroid development or condensation,"[2]; 1 millimolar decanoic acid, 24 days on HA hydrogel",enhanced spheroid development or condensation
same,concentration of peak Col2a1 staining,[2]; high-density monolayers,0.5 millimolar
same,punctate staining for Col2a1,[2]; [8],dose-dependent punctate staining for Col2a1
same,staining for aggrecan (ACAN),[2]; [8],dose-dependent increase in staining for aggrecan
same,nuclear staining for SOX9,"[2]; high-density monolayers, vehicle, 0.1, 0.5 and 1 millimolar decanoic acid, 24 days on HA hydrogel",enhanced nuclear staining for SOX9 in a dose-dependent manner
same,punctate immunostaining for Col2a1,"[2]; low-density monolayers, 1 millimolar decanoic acid",strong punctate immunostaining for Col2a1
same,"intracellular staining for ACAN (FU/DAPI, FIG. 1)","[2]; low-density monolayers, increasing millimolar concentrations, strongest at 1 millimolar",dose-dependent increase in aggrecan (ACAN) immunofluorescence staining; also recorded: dose-dependent intracellular staining for ACAN
same,ACAN immunostaining of chondrocyte spheroids,"[2]; spheroids on HA hydrogels, 1 millimolar decanoic acid",strong ACAN immunostaining
same,spheroid morphology after 4 days of culture,"[3]; 4 days on HA hydrogel, with vs without decanoic acid",the spheroids generated interconnected networks; also recorded: promoted interconnected networks of spheroids
same,spheroid morphology after 20 days of culture,"[3]; 20 days on HA hydrogel, 1 millimolar decanoic acid vs without",increased condensation and the development of large spheroids; also recorded: large spheroid development or condensation
same,inhibition of inflammasome-IL-1beta release,[4],dose-dependent inhibition of IL-1beta concentrations; also recorded: dose-dependent inhibition of inflammasome-IL-1beta release
same,"cell density / viability (MTS, OD 490 nanometers)",[5],significant decrease in viability; also recorded: unfavorable effect on cell density
same,decrease concentration of IL-1beta,[6]; CL075 24 hours then ATP 1 hour (second hit),91%
same,decrease concentration of IL-1beta,"[6]; CL075 24 hours, absence of ATP (first hit)",77%
same,decrease in optical density at 490 nanometers (cell counts),"[7]; CL075, absence of ATP",18%
same,decrease in optical density at 490 nanometers (cell counts),"[7]; CL075, presence of ATP",25%
